# Measurements reported in patent US12076401B2, “Benzamide and active compound compositions and methods of use” (TRANSLATIONAL DRUG DEVELOPMENT, LLC, priority 2015, dated 2024).
# Where “and” joins values, the source holds several entries; their conditions need not be identical. Identical values can stand only once. Like-named read-outs stand apart in the source and are kept apart here.
# Experiments:
# cancer cell models = conditions: cited from earlier work
# [1] = cited from earlier work
# [2] = Pharmacokinetic studies, plasma of healthy mice; type: in vivo; conditions: mouse; for Half-life: 1.0 mg/kg IV; for AUC0-∞: 5.0 mg/kg PO; for AUC: plasma, 5 mg/kg oral (PO)
# Procedure: Plasma samples were collected from healthy mice and analyzed for levels of compound ID #24, ID #25, and ID #26 and reported in Table 6. In brief, compounds were individually and accurately weighed out to produce a stock solution in Dimethyl-sulfoxide (DMSO) at a concentration of 2 mg/mL and stored at −20° C. From the stock solution, a working stock was prepared by diluting it in Methanol-Water 50:50 (v/v) at 20 μg/mL for calibration curve preparation and stored at 4° C. Standards used for quantitation and quality control samples (QC's) were prepared on the same day of sample processing using blank plasma obtained from non-treated mice. For each analyte, standards were prepared through serial dilution of the working stock at concentrations of 0.1, 0.5, 1.0, 10, 50, 100, 500 and 1000 ng/mL; QC's were prepared at intermediate concentrations of 0.75, 7.5, 75 and 750 ng/mL. Plasma samples were stored at −80° C. until ready for analysis and then placed on ice for thawing. An aliquot of 20 μL for samples, standards and QC's, were transferred into a 96-well extraction plate according to a pre-defined layout. Appropriate volume of Methanol-Formic Acid 99.9-0.1 containing internal standard (Verapamil at 25 ng/mL) was added to each well and samples were extracted under vacuum. Eluent was then transferred into a LCMS plate for analysis using a suitable column for separation and MRM detection. Concentration of analytes was calculated based on the calibration curve and analyzed for pharmacokinetic parameters by using Non-compartmental analysis (NCA) using WinNonlin Phoenix software. Parameters such as Cmax, Tmax, half-life, AUC(0-last), AUC(0-∞), volume of distribution (Vss) and clearance (Cl/F) were reported.
# The analogs were tested for pharmacokinetic analysis in the mouse with doses of 1 mg/kg for intravenous (IV) route and 5 mg/kg for oral (PO) route. […] Overall exposure following IV dose also favored compound ID #24 with AUC0-∞ 1488.1 hr*ng/mL whereas compound ID #25 and ID #26 were 329.1 and 1193.7 hr*ng/mL, respectively.
# [3] = system: MM1.S human myeloma cells; assay: Human MM1.S myeloma xenograft, single agent screening; type: in vivo; conditions: female athymic nude mice; 100 mg/kg daily for 19 days, oral gavage
# Description: Body weights and tumor measurements were collected twice weekly.
# CT-26 = CT-26 murine colon tumor volume growth; type: in vivo; conditions: 150.00 mg/kg PO QD to end + Isotype Control 0.05 mg/kg IP QDx1, in mm³
# Procedure: • Group 1 Isotype Control+Compound ID #24 Vehicle Control • Group 2 Isotype Control+Compound ID #24 • Group 3 Anti-m4-1BB 0.05 mg/kg • Group 4 Anti-m4-1BB 0.10 mg/kg • Group 5 Anti-m4-1BB 0.05 mg/kg+Compound ID #24
# MC-38 = MC-38 murine colon tumor volume growth; type: in vivo; conditions: 150.00 mg/kg PO QD to end, in mm³
# Procedure: • Group 1 Isotype Control 5.00 mg/kg+Compound ID #24 Vehicle • Group 3 Compound ID #24 150.00 mg/kg • Group 4 anti-mGITR 5.00 mg/kg • Group 6 anti-mGITR 5.00 mg/kg+Compound ID #24 150.00 mg/kg
# U266 = assay: CellTiter-Glo cell viability, U266 (Myeloma); type: cell-based
# Procedure: Compound ID #24 (a compound of formula (I)) and Compound ID #26 (a compound of formula (II)) were tested for the inhibition of cancer cell proliferation. Cell viability in the presence of varying concentrations of Compound ID #24 and Compound ID #26 at different time points was used to assess cytotoxicity and the effect of the compounds on cell proliferation. The data clearly show the surprising and unexpected increased anti-cancer activity associated with Compound ID #24 compared to Compound ID #26.
# Cell Viability Assay—Cell viability was measured by the CellTiter-Glo® cell viability assay Promega (Madison, Wis.). The CellTiter-Glo® Luminescent Cell Viability Assay is a homogeneous method to determine the number of viable cells in culture based on quantitation of the ATP present, which signals the presence of metabolically active cells. Following treatment, CellTiter-Glo® is added to treatment wells and incubated at 37° C. luminescence values were measured at using a Molecular Devices Spectramax microplate reader.
# Single Agent Studies—Cells were grown to 70% confluency, trypsinized, counted, and seeded in 96 well flat-bottom plates at a final concentration of 2.5×10^3-5×10^3 cells/well (Day 0). Cells were allowed to incubate in growth media for 24 hours. […] Viable cell numbers are quantified by the CellTiter-Glo® cell viability assay as described above. […]
# [4] = system: intratumoral CD8 T-cells and natural killer cells; assay: Intratumoral immune cells in tumor bearing mice; type: in vivo
structure (smiles),measurement,setting,value
"Nc1ncn([C@H]2C[C@H](O)[C@@H](CO)O2)c(=O)n1 [Decitabine, 4-amino-1-(2-deoxy-β-D-erythro-pentofuranosyl)-1,3,5-triazin-2(1H)one]","cell cycle, clonogenic survival and growth in cells",cancer cell models; Palii et al. 2008,"causes G2 arrest, reduces clonogenic survival, and inhibits growth in cells"
same,effect on growth and apoptosis of cancer cell models,cancer cell models; through re-expression of silenced genes,suppression of growth and apoptosis
same,Solubility,[1]; dimethylsulfoxide (DMSO),soluble
same,Solubility,"[1]; ethanol/water (50/50), methanol/water (50/50) and methanol",slightly soluble
same,Solubility,[1]; water,sparingly soluble
"O=C(NO)c1ccc(Nc2nc3ccccc3n2C2CCCCC2)cc1 [Compound ID #25, 4-(1-cyclohexyl-1H-benzo[d]imidazol-2-ylamino)-N-hydroxybenzamide]",Half-life,[2],1.20 h
same,AUC0-∞,[2],1277.26 ng·h/mL
same,AUC,[2],1280 ng·h/mL
"Nc1ncn([C@@H]2O[C@H](CO)[C@@H](O)[C@H]2O)c(=O)n1 [Azacitidine, 4-amino-1-β-D-ribofuranozyl-s-triazin-2(1H)-one]",Solubility,"[1]; acetone, ethanol and methyl ketone",insoluble
same,Solubility,[1]; dimethylsulfoxide (DMSO),soluble
same,Solubility,"[1]; ethanol/water (50/50), propylene glycol and polyethylene glycol",slightly soluble
same,Solubility,"[1]; water, water-saturated octanol, 5% dextrose in water, N-methyl-2-pyrrolidone, normal saline and 5% Tween 80 in water",sparingly soluble
"O=C(NO)c1ccc(Nc2nc3ccccc3n2C2CCCCCC2)cc1 [Compound ID #26, 4-(1-cycloheptyl-1H-benzo[d]imidazol-2-ylamino)-N-hydroxybenzamide]",AUC,[2],1650 ng·h/mL
"O=C(NO)c1ccc(Nc2nc3ccccc3n2CC2CCCCC2)cc1 [Compound ID #24, 4-(1-(cyclohexylmethyl)-1H-benzo[d]imidazol-2-ylamino)-N-hydroxybenzamide]",anticancer activity (tumor volume),[3],significantly superior anticancer activity when compared to either Compound ID #25 or Compound ID #26
same,Half-life,[2],3.70 h
same,AUC0-∞,[2],3974.82 ng·h/mL
same,AUC,[2],3970 ng·h/mL
same,"Tumor volume, Mean",CT-26; Day 1,122.0
same,"Tumor volume, Median",CT-26; Day 1,113.8
same,"Tumor volume, individual animals",CT-26; Day 1,106 and 85 and 156 and 149 and 114
same,"Tumor volume, Mean",CT-26; Day 5,165.5
same,"Tumor volume, Median",CT-26; Day 5,144.8
same,"Tumor volume, individual animals",CT-26; Day 5,131 and 73 and 299 and 158
same,"Tumor volume, Mean",CT-26; Day 8,215.2
same,"Tumor volume, Median",CT-26; Day 8,208.7
same,"Tumor volume, individual animals",CT-26; Day 8,176 and 65 and 378 and 242
same,"Tumor volume, Mean",CT-26; Day 9,241.8
same,"Tumor volume, Median",CT-26; Day 9,245.2
same,"Tumor volume, individual animals",CT-26; Day 9,198 and 65 and 412 and 292
same,"Tumor volume, Mean",CT-26; Day 12,307.4
same,"Tumor volume, Median",CT-26; Day 12,285.7
same,"Tumor volume, individual animals",CT-26; Day 12,212 and 68 and 590 and 359
same,"Tumor volume, Mean",CT-26; Day 14,382.7
same,"Tumor volume, Median",CT-26; Day 14,352.6
same,"Tumor volume, individual animals",CT-26; Day 14,254 and 67 and 758 and 452
same,"Tumor volume, Mean",MC-38; Day 1,94.5
same,"Tumor volume, Median",MC-38; Day 1,92.2
same,"Tumor volume, individual animals",MC-38; Day 1,68 and 81 and 103 and 128 and 92
same,"Tumor volume, Mean",MC-38; Day 6,141.8
same,"Tumor volume, Median",MC-38; Day 6,137.6
same,"Tumor volume, individual animals",MC-38; Day 6,72 and 92 and 138 and 231 and 176
same,"Tumor volume, Mean",MC-38; Day 9,154.8
same,"Tumor volume, Median",MC-38; Day 9,148.0
same,"Tumor volume, individual animals",MC-38; Day 9,83 and 121 and 148 and 240 and 182
same,"Tumor volume, Mean",MC-38; Day 12,187.8
same,"Tumor volume, Median",MC-38; Day 12,190.0
same,"Tumor volume, individual animals",MC-38; Day 12,123 and 158 and 222 and 248
same,"Tumor volume, Mean",MC-38; Day 15,235.9
same,"Tumor volume, Median",MC-38; Day 15,251.8
same,"Tumor volume, individual animals",MC-38; Day 15,135 and 213 and 290 and 305
same,"Tumor volume, Mean",MC-38; Day 19,285.2
same,"Tumor volume, Median",MC-38; Day 19,289.3
same,"Tumor volume, individual animals",MC-38; Day 19,178 and 289 and 388
same,"Tumor volume, Mean",MC-38; Day 22,389.1
same,"Tumor volume, Median",MC-38; Day 22,397.8
same,"Tumor volume, individual animals",MC-38; Day 22,244 and 398 and 526
same,"Tumor volume, Mean",MC-38; Day 26,566.5
same,"Tumor volume, Median",MC-38; Day 26,540.0
same,"Tumor volume, individual animals",MC-38; Day 26,370 and 540 and 789
same,"Tumor volume, Mean",MC-38; Day 29,714.8
same,"Tumor volume, Median",MC-38; Day 29,646.1
same,"Tumor volume, individual animals",MC-38; Day 29,"495 and 646 and 1,003"
same,Improvement ID#24 over ID#26 Fold Change,U266,3.50
same,numbers of intratumoral CD8 T-cells and natural killer cells,[4],increased numbers of intratumoral CD8 T-cells and natural killer cells
